Consider 11 molecules from patent US10364256B2 (GlaxoSmithKline Intellectual Property Development Limited, priority 2015, dated 2019).

In assay [1] the target is T1, full length Keap1 protein / full length NRF2 protein (Homo sapiens, UniProt Q14145).
T1 construct: full length NRF2 protein and full length Keap1 protein (Keap1 exists a dimer) are used; His
The assay can be described thus: NRF2-Keap1 TR-FRET Assay. In kind it is binding. To be noted: 25 nM Keap1-FlagHis and 50 nM biotin-NRF2 added. The essentials: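 Displacement of biotinylated full-length NRF2 from full-length Keap1 read by Eu/APC TR-FRET (665/615 nm) after 1 h detection at RT. Compound, 3-fold series, first incubated with Keap1 at 37 °C for 2.25 h, NRF2 then added at 4 °C for 1.25 h; pIC50 by four-parameter equation.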

Assay [2] deals with T2, Keap1 Kelch domain (321-609) / TAMRA-labeled 16mer NRF2 peptide (ETGE motif) (Homo sapiens, UniProt Q14145).
T2 construct: the Kelch domain (321-609) of Keap1 is used
The assay can be described thus: NRF2-Keap1 FP Assay (Keap1 Kelch fluorescence polarization). In kind it is binding. To be noted: 20 nM Keap1 (321-609), 8 nM Tamra labeled peptide. Put shortly:
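Compound dilutions (3-fold) were incubated 1 hr at room temperature with 20 nM Keap1 Kelch (321-609) and 8 nM TAMRA-labeled ETGE 16mer peptide. Buffer was 50 mM Tris pH 8.0, 100 mM NaCl, 5 mM MgCl2, 1 mM DTT, 2 mM CHAPS, 0.005% BSA. Fluorescence polarization (mP) was normalized to controls and fitted with a four-parameter equation to give pIC50.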
A general note: In fluorescence polarisation assays a small probe gives low polarisation when free and higher when bound to something large.

The subject of assay [3] is NQO1 specific enzyme activity in BEAS-2B cells (marker for NRF2 activation). The assay can be described thus: BEAS-2B NQO1 MTT Assay. To be noted: Homo sapiens, compound incubated 48 hours, read-out: EC50 (NQO1 specific enzyme activity induction). In kind it is cell-based. The essentials:
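NQO1 specific activity induction is derived from the rate of MTT reduction (ΔOD/min, 570 nm, 30 min kinetic read) in crude lysates of BEAS-2B cells exposed to compound for 48 h. A 3-parameter fit gives EC50, reported as pEC50; part of each lysate goes to Cell Titer Glo.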

SMILES strings stand for the structures. Where two headings read alike, the source gives them in different places. Bounds are passed on as bounds.

T1 sequence (Q14145 whole entry): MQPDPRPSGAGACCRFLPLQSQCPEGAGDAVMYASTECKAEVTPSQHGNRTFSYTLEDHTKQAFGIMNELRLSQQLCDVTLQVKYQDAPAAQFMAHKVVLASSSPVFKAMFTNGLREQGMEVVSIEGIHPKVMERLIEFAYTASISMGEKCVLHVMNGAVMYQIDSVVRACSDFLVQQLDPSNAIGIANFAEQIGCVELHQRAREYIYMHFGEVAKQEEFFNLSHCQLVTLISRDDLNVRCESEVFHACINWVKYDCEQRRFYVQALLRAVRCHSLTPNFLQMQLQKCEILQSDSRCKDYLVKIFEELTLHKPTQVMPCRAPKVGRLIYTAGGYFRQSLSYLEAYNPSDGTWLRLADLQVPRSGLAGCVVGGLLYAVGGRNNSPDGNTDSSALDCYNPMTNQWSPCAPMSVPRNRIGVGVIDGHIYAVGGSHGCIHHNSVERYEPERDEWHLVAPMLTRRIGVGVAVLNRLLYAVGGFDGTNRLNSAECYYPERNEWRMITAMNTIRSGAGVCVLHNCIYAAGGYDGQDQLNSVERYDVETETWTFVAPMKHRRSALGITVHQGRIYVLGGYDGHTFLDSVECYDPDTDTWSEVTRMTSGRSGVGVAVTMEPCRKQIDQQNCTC
T2 sequence (Q14145 321-609): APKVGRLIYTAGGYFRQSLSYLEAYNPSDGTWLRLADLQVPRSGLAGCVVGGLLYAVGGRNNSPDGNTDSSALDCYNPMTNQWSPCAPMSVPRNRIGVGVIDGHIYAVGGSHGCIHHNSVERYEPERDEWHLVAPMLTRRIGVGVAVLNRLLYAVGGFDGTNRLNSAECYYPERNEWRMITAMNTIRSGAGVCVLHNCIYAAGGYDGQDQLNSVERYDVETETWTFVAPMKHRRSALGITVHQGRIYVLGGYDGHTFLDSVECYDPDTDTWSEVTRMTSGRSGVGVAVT

For the molecule `Cn1cc(C2CC2c2c(C(=O)O)cnn2-c2cccc(-c3cccc(OCC4CCCCO4)c3)c2)nn1` (stereo not drawn) [Example 175, 5-(2-(1-Methyl-1H-1,2,3-triazol-4-yl)cyclopropyl)-1-(3′-((tetrahydro-2H-pyran-2-yl)methoxy)-[1,1′-biphenyl]-3-yl)-1H-pyrazole-4-carboxylic acid], the IC50 in assay [1] is 100 to 1000 nM; in assay [2], 10 to 100 nM. The EC50 in assay [3] was 1000 to 10000 nM.
In the same order, the values of `CC(C)Oc1cccc(-c2cccc(-n3ncc(C(=O)O)c3C3CC3c3cn(C)nn3)c2)c1F` (stereo not drawn) [Example 181, 1-(2′-Fluoro-3′-isopropoxy-[1,1′-biphenyl]-3-yl)-5-(2-(1-methyl-1H-1,2,3-triazol-4-yl)cyclopropyl)-1H-pyrazole-4-carboxylic acid] are 1000 to 10000 nM, 100 to 1000 nM and 1000 to 10000 nM.
In the same order, the values of `CCOC(c1cccc(-c2cccc(-n3ncc(C(=O)O)c3C3CC3c3cn(C)nn3)c2)c1)C(C)C` (stereo not drawn) [Example 182, 1-(3′-(1-Ethoxy-2-methylpropyl)-[1,1′-biphenyl]-3-yl)-5-(2-(1-methyl-1H-1,2,3-triazol-4-yl)cyclopropyl)-1H-pyrazole-4-carboxylic acid] are 100 to 1000 nM, 10 to 100 nM and 100 to 1000 nM.
In the same order, the values of `COC(c1cccc(-c2cccc(-n3ncc(C(=O)O)c3C3CC3c3cn(C)nn3)c2)c1)C(C)C` (stereo not drawn) [Example 184, 1-(3′-(1-Methoxy-2-methylpropyl)-[1,1′-biphenyl]-3-yl)-5-(2-(1-methyl-1H-1,2,3-triazol-4-yl)cyclopropyl)-1H-pyrazole-4-carboxylic acid] are 100 to 1000 nM, 10 to 100 nM and 100 to 1000 nM.
For `Cn1cc(C2CC2c2c(C(=O)O)cnn2-c2cc(C#N)cc(-c3cccc(OCC4CCCCC4)c3)c2)nn1` (stereo not drawn) [Example 189, 1-(5-cyano-3′-(cyclohexylmethoxy)-[1,1′-biphenyl]-3-yl)-5-(2-(1-methyl-1H-1,2,3-triazol-4-yl)cyclopropyl)-1H-pyrazole-4-carboxylic acid], the values for the IC50 in assay [1] and in assay [2] were 10000 to 100000 nM and above 10000 nM, respectively. The EC50 in assay [3] was in the range of 1000 to 10000 nM.
Turning to `Cn1cnc(C2CC2c2c(C(=O)O)cnn2-c2cccc(-c3cccc(OCC4CCCCC4)c3)c2)c1` (stereo not drawn) [Example 190, 1-(3′-(cyclohexylmethoxy)-[1,1′-biphenyl]-3-yl)-5-(2-(1-methyl-1H-imidazol-4-yl)cyclopropyl)-1H-pyrazole-4-carboxylic acid], the half-maximal inhibitory concentration (IC50) in assay [1] was 10000 to 100000 nM; in assay [2] it was 1000 to 10000 nM. Besides, in assay [3], the EC50 lay within 1000 to 10000 nM.
On to `CCC[C@@H]1CCCCN1C(=O)c1cc(F)cc(-c2cccc(-n3ncc(C(=O)O)c3C3CC3c3cn(C)nn3)c2)c1` (stereo partly drawn) [Example 198, 1-(3′-Fluoro-5′-((R)-2-propylpiperidine-1-carbonyl)-[1,1′-biphenyl]-3-yl)-5-(2-(1-methyl-1H-1,2,3-triazol-4-yl)cyclopropyl)-1H-pyrazole-4-carboxylic acid], for which the IC50 in assay [1] and in assay [2] was 10 to 100 nM in each case. In assay [3] (BEAS-2B, 48 h), the EC50 fell in the range of 100 to 1000 nM.
Regarding `CCC[C@@H]1CCCCN1C(=O)c1cccc(-c2cccc(-n3nc(C)c(C(=O)O)c3C3CC3)c2)c1` [Example 203, (R)-5-Cyclopropyl-3-methyl-1-(3′-(2-propylpiperidine-1-carbonyl)-[1,1′-biphenyl]-3-yl)-1H-pyrazole-4-carboxylic acid], the IC50 in assay [1] and in assay [2] was 1000 to 10000 nM each time. In addition, the EC50 in assay [3] lay within 1000 to 10000 nM.
For `O=C(O)c1cnn(-c2cccc(-c3cccc(-n4ncc5c4C(C4CC4)CC5)c3)c2)c1C1CC1` (stereo not drawn) [Example 207, 5-Cyclopropyl-1-(3′-(6-cyclopropyl-5,6-dihydrocyclopenta[c]pyrazol-1(4H)-yl)-[1,1′-biphenyl]-3-yl)-1H-pyrazole-4-carboxylic Acid], the figures for the 50% inhibitory concentration (IC50) in assay [1] and in assay [2] were 1000 to 10000 nM and 100 to 1000 nM, respectively. Besides, the EC50 in assay [3] lay within 1000 to 10000 nM.
As to `Cc1nc(-c2cccc(-c3cccc(-n4ncc(C(=O)O)c4C4CC4)c3)c2)no1` [Example 211, 5-Cyclopropyl-1-(3′-(5-methyl-1,2,4-oxadiazol-3-yl)-[1,1′-biphenyl]-3-yl)-1H-pyrazole-4-carboxylic acid], the figures for the half-maximal inhibitory concentration (IC50) in assay [1] and in assay [2] were 10000 to 100000 nM and above 10000 nM, respectively. In assay [3], the EC50 fell in the range of 1000 to 10000 nM.
Taken in the same sequence, the figures for `Cn1cc(C2CC2c2c(C(=O)O)cnn2-c2cccc(-c3cccc(C(O)C4CCCCC4)c3)c2)nn1` (stereo not drawn) [Example 220, 1-(3′-(Cyclohexyl(hydroxy)methyl)-[1,1′-biphenyl]-3-yl)-5-(2-(1-methyl-1H-1,2,3-triazol-4-yl)cyclopropyl)-1H-pyrazole-4-carboxylic acid] were 100 to 1000 nM, 10 to 100 nM and 1000 to 10000 nM.

A word on the IC50: it is the point on the concentration scale where inhibition reaches its midpoint. A word on the EC50: it is the concentration at which the effect is half-maximal.
